Laboratory results published in patent US20080206149A1, “METHOD, DYE AND MEDICAMENT FOR STAINING THE INTERNAL LIMITING MEMBRANE, EPIRETINAL MEMBRANE, THE VITREOUS AND/OR THE CAPSULE OF AN EYE” (LUDWIG-MAXIMILIANS-UNIVERSITAT MUNCHEN, priority 2005, published 2008).

Legend:
lens capsule [1] = experiment: Staining of lens capsule removed during intraocular surgery; conditions: concentrations of 0.5% or less; dye removed after one minute
Description: (§1) The following four dyes were examined as examples for the inventive dyes in the present study: Light green yellowish SF (LG SF), E68, Bromophenol blue (BPB) and Chicago blue (CB). ICG (Pulsion, Munich, Germany) was used as a reference. All dyes were dissolved and diluted with balanced salt solution (BSS plus; Alcon Laboratories Inc., Fort Worth, Tex.) and concentrations of 1.0, 0.5, 0.2 and 0.05% were obtained. Dry ICG powder was first dissolved with sterile water provided by the manufacturer resulting in a 0.5% solution and then further diluted using BSS plus to a concentration of 0.05%. The dyes were then used to stain lens capsule and epiretinal membranes removed during intraocular surgery. Immediately after removal, the material was placed on a glass slide and covered with a few drops of the dye. After one minute, the dye was carefully removed by irrigation using BSS plus. Lens capsule and epiretinal tissue was then evaluated macroscopically and using light microscopy. The staining effect was subjectively graded as “excellent, good, fair or absent” by one unmasked person and photographs were taken.

[2] = tested on: epiretinal membranes (ERM); experiment: Staining of epiretinal membranes removed during intraocular surgery; conditions: concentration of 1%; dye removed after one minute
Description: as §1

lens capsule [3] = experiment: Staining of the lens capsule in enucleated porcine eyes; conditions: injected into air-filled anterior chamber, removed after one minute; clear porcine lens as background
Description: Additionally, the staining characteristics of the lens capsule in enucleated porcine eyes with a postmortem time of nine hours were evaluated. The dyes were injected into the air-filled anterior chamber and removed by irrigation after one minute. Then, the cornea was removed and a capsulorhexis was performed with a bent needle. All procedures were taped on video.

[4] = Light absorbing properties (UV/VIS/NIR spectrometer); format: physicochemical; conditions: measured up to a content of 0.05% dye
Description: Light absorption was measured in 0.05% solutions, with BSS plus as a solvent medium. Light absorption was measured instantly after preparation of a stock solution of the dye using a UV/VIS/NIR Spectrometer (Lambda 900, Perkin Elmer) between 200 and 1000 nm.

ARPE-19 cells [5] = experiment: Life-dead assay (propidium iodide / Hoechst 33342), ARPE-19 cells; format: cell-based
Description: (§2) Confluent RPE and ARPE-19 cells were prepared and treated as described above. Cell viability was quantified based on a two-color fluorescence assay in which the nuclei of nonviable cells appear red because of staining by the membrane-impermeable dye propidium iodide (Sigma), whereas the nuclei of all cells were stained with the membrane-permeable dye Hoechst 33342 (Intergen, Purchase, N.Y.). […] For evaluation of cell viability, cells were washed in PBS and incubated with 2.0 μg/mL propidium iodide and 1.0 μg/mL Hoechst 33342 for 20 minutes at 37° C. Subsequently, cells were analyzed with an epifluorescence microscope (Axioskop; Zeiss, Göttingen, Germany). The labeled nuclei were then counted in fluorescence photomicrographs, and dead cells were expressed as a percentage of total nuclei in the field. The data are based on counts from three experiments performed in duplicate wells, with three to five documented representative fields per well.

primary RPE cells [6] = experiment: Life-dead assay (propidium iodide / Hoechst 33342), primary RPE cells; format: cell-based
Description: Invest Ophthalmol Vis Sci 2002; 43: 3575-82.
as §2

vitreous = experiment: Staining of the vitreous during pars plana vitrectomy in porcine eyes; format: in vivo; conditions: graded by two examiners
Description: All dyes were dissolved and diluted using balanced salt solution (BSS plus; Alcon Laboratories Inc., Fort Worth, Tex).
Experiments were performed in animals (porcine eyes) and humans after approval of the local ethics committee had been obtained. All experiments were performed in compliance with the Declaration of Helsinki.
Ophthalmic surgery consisted of a standard pars plana vitrectomy. First, the transparent vitreous was removed as completely as possible. Then fluid air exchange was performed in order to avoid an uncontrolled distribution of the dye in the vitreous cavity. The dye was then injected into the air filled globe. After a period of one minute, the dye was washed out by irrigation with BSS. This was followed by an injection of the dye in concentrations from 0.2% to 2%. The staining of the vitreous was graded by two examiners who also performed the surgical procedures.

ARPE-19 cells [7] = experiment: MTT assay, ARPE-19 cells; conditions: 0.2% and 0.02% dye, 10 minutes exposure, compared to BSS plus control
Description: ARPE-19 cells, a human retinal pigment epithelial cell line (42), were purchased from ATCC (Manassas, Va., USA) and grown in a 1:1 mixture of Dulbecco's modified Eagles medium and Ham's F12 medium (DMEM/Ham's F12, Biochrom), supplemented with 10% FCS (Biochrom).
For exposure of dyes RPE and ARPE-19 cells were kept for 24 hours under serum free conditions. After washing cells three times with PBS, cells were incubated for 10 minutes with 300 μl of BSS plus containing 0.2% or 0.02% of dye, respectively. […] The dye was then removed by carefully rinsing cells with BSS plus three times. After 24 hours incubation with serum containing media the cell proliferation assay was performed. RPE cells (p3-6) were seeded in 24-well plates and exposed to two concentrations (0.2 and 0.02%) of dyes. BSS plus alone and H2O2, (200 μL/mL) served as controls.
The tetrazolium dye-reduction assay (MTT; 3-[4,5-dimethylthiazol-2-yl]-2,5-diphenyl tetrazolium bromide;) was used to determine cell survival rate. […] The medium was removed, cells were washed with PBS, and 1000 μL/well MTT solution (1.5 mL MTT stock, 2 mg/mL in PBS, plus 28.5 mL DMEM) was added. RPE cells were incubated at 37° C. for 1 hour. The formazan crystals that formed were dissolved by the addition of dimethyl sulfoxide (DMSO; 1000 μL/well). Absorption was measured by a scanning multiwell spectrophotometer at 550 nm (Molecular Probes, Garching, Germany). […] Experiments were performed in triplicate and repeated three times. RPE and ARPE-19 cells of the same passage incubated with BSS without addition of dyes served as control. Statistical comparison between dye concentrations was performed with SPSS (Mann-Whitney-U-Test).
The MTT test as performed in this study is a well established test for the assessment of cell viability, but relies on calorimetric measurement of a blue (550 nm) formazan reaction product. This color overlaps with the absorption spectra of some of the dyes tested. […] Cell monolayers were treated with dyes as per the experiments described above but absorbance readings were performed without prior application of MTT. […]

primary RPE cells [8] = experiment: MTT assay, primary RPE cells; conditions: 0.2% and 0.02% dye, 10 minutes exposure, compared to BSS plus control
Description: In brief, whole eyes were thoroughly cleansed in 0.9% NaCl solution, immersed in 5% polyvinyl pyrrolidone iodine, and rinsed again in the sodiumchloride solution. The anterior segment from each donor eye was removed and the posterior poles were examined with the aid of a binocular stereomicroscope to confirm the absence of gross retinal disease. Next, the neural retinas were carefully peeled away from the RPE-choroid-sclera using fine forceps. The eye cup was rinsed with Ca^2+ and Mg^2+-free Hank's balanced salt solution, and filled with 0.25% trypsin (GIBCO, Karlsruhe, Germany) for 30 min at 37° C. The trypsin was carefully aspirated and replaced with Dulbecco's modified eagles medium (DMEM, Biochrom, Berlin, Germany) supplemented with 20% fetal calf serum (FCS, Biochrom). Using a pipette, the media was gently agitated, releasing the RPE into the media by avoiding damage to Bruch's membrane. The RPE cell solution was transferred to a 50 ml flask (Falcon, Wiesbaden, Germany) containing 20 ml of DMEM (Biochrom) supplemented with 20% FCS (Biochrom) and maintained at 37° C. and 5% carbon dioxide. […] After having grown to confluency (100%), primary RPE cells were subcultured and maintained in DMEM (Biochrom) supplemented with 10% FCS (Biochrom) at 37° C. and 5% carbon dioxide. Primary RPE of passage 3-6 and ARPE-19 cells were used for experiments.
For exposure of dyes RPE and ARPE-19 cells were kept for 24 hours under serum free conditions. After washing cells three times with PBS, cells were incubated for 10 minutes with 300 μl of BSS plus containing 0.2% or 0.02% of dye, respectively. […] The dye was then removed by carefully rinsing cells with BSS plus three times. After 24 hours incubation with serum containing media the cell proliferation assay was performed. […]
The tetrazolium dye-reduction assay (MTT; 3-[4,5-dimethylthiazol-2-yl]-2,5-diphenyl tetrazolium bromide;) was used to determine cell survival rate. […] Absorption was measured by a scanning multiwell spectrophotometer at 550 nm (Molecular Probes, Garching, Germany). […]

| Compound | staining effect in removed lens capsule material (lens capsule [1]) | staining of ERM [2] | staining of the lens capsule in porcine eyes (lens capsule [3]) | position of the long wavelength maximum, influence of dye concentration [4] | cell viability, nuclei of nonviable cells labeled with propidium iodide (ARPE-19 cells [5]) | toxicity of 0.02% in comparison to the 0.2% dye solution (ARPE-19 cells [5]) | cell viability, nuclei of nonviable cells labeled with propidium iodide (primary RPE cells [6]) | toxicity of 0.02% in comparison to the 0.2% dye solution (primary RPE cells [6]) | staining effect of the vitreous (vitreous; dye concentration 0.2%) | staining effect of the vitreous (vitreous; dye concentration 2.0%) | cell survival of ARPE-19 cells (MTT) (ARPE-19 cells [7]) | cell survival of primary RPE cells (MTT) (primary RPE cells [8]) |
| --- | --- | --- | --- | --- | --- | --- | --- | --- | --- | --- | --- | --- |
| CCN(Cc1cccc(S(=O)(=O)O)c1)c1ccc(C(=C2C=CC(=[N+](CC)Cc3cccc(S(=O)(=O)O)c3)C=C2)c2ccc(S(=O)(=O)O)cc2)cc1.[Na+].[Na+] [Light green SF] | did not stain lens capsule sufficiently | weak staining | weak staining effects | not influenced by the dye concentration | significantly affect cell viability | far less toxic | significantly affect cell viability | far less toxic | strong | strong | no significant impact on cell survival | no influence on cell survival |
| Chicago blue |  |  | stained well | not influenced by the dye concentration | significantly affect cell viability |  | significantly affect cell viability |  | weak | strong | no significant impact on cell survival | no influence on cell survival |
| Copperphtalocyanine-3,4′,4″,4′″-tetrasulphonic acid tetrasodium salt [E68] |  |  | stained well |  | did not affect cell survival |  | did not affect cell survival |  | weak | strong |  |  |
